Source: PubChem BioAssay (NCI)
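Tested at 5 concentrations; 48 h exposure; 96-well plates; endpoints linearly interpolated, else capped at highest concentration. TGI marks complete inhibition of growth.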

What was measured:
Assay in all cases: growth of human tumour cells (NCI), 48 h
LXFL 529 NSCLC = tested on: LXFL 529 NSCLC
MOLT-4 leukemia = tested on: MOLT-4 leukemia
IGROV1 ovarian = tested on: IGROV1 ovarian
UO-31 renal = tested on: UO-31 renal
TK-10 renal = tested on: TK-10 renal
SN12C renal = tested on: SN12C renal
SW-620 colon = tested on: SW-620 colon
UACC-257 melanoma = tested on: UACC-257 melanoma
SNB-78 CNS = tested on: SNB-78 CNS
786-0 renal = tested on: 786-0 renal
U251 CNS = tested on: U251 CNS
OVCAR-5 ovarian = tested on: OVCAR-5 ovarian
LOX IMVI melanoma = tested on: LOX IMVI melanoma
K-562 leukemia = tested on: K-562 leukemia
ACHN renal = tested on: ACHN renal
NCI-H460 lung = tested on: NCI-H460 lung
SK-MEL-5 melanoma = tested on: SK-MEL-5 melanoma
HOP-92 NSCLC = tested on: HOP-92 NSCLC
HT29 colon = tested on: HT29 colon
RXF 393 renal = tested on: RXF 393 renal
M14 melanoma = tested on: M14 melanoma
CAKI-1 renal = tested on: CAKI-1 renal
HCT-15 colon = tested on: HCT-15 colon
OVCAR-3 ovarian = tested on: OVCAR-3 ovarian
SNB-19 CNS = tested on: SNB-19 CNS
NCI-H23 lung = tested on: NCI-H23 lung
SF-295 CNS = tested on: SF-295 CNS
UACC-62 melanoma = tested on: UACC-62 melanoma
SF-268 CNS = tested on: SF-268 CNS
SK-MEL-28 melanoma = tested on: SK-MEL-28 melanoma
DMS 114 small cell lung = tested on: DMS 114 small cell lung
OVCAR-4 ovarian = tested on: OVCAR-4 ovarian
SNB-75 CNS = tested on: SNB-75 CNS
EKVX NSCLC = tested on: EKVX NSCLC
NCI-H522 lung = tested on: NCI-H522 lung
HCT-116 colon = tested on: HCT-116 colon
M19-MEL melanoma = tested on: M19-MEL melanoma
CCRF-CEM leukemia = tested on: CCRF-CEM leukemia
A498 renal = tested on: A498 renal
HOP-62 NSCLC = tested on: HOP-62 NSCLC
SK-MEL-2 melanoma = tested on: SK-MEL-2 melanoma
MALME-3M melanoma = tested on: MALME-3M melanoma
HL-60(TB) leukemia = tested on: HL-60(TB) leukemia
DLD-1 colon = tested on: DLD-1 colon
OVCAR-8 ovarian = tested on: OVCAR-8 ovarian
DMS 273 small cell lung = tested on: DMS 273 small cell lung
KM20L2 colon = tested on: KM20L2 colon
SF-539 CNS = tested on: SF-539 CNS
XF 498 CNS = tested on: XF 498 CNS
NCI-H226 lung = tested on: NCI-H226 lung
COLO 205 colon = tested on: COLO 205 colon
A549 NSCLC = tested on: A549 NSCLC
SK-OV-3 ovarian = tested on: SK-OV-3 ovarian
KM12 colon = tested on: KM12 colon
SR leukemia = tested on: SR leukemia
HCC-2998 colon = tested on: HCC-2998 colon
HOP-18 NSCLC = tested on: HOP-18 NSCLC

SMILES: N#C/C(=C1\SC(N=Nc2ccccc2)C(=O)N1c1ccccc1)c1nc2ccccc2[nH]1 (stereo not drawn)
- TGI (LXFL 529 NSCLC): > 100 µM
- TGI (MOLT-4 leukemia): > 100 µM
- TGI (IGROV1 ovarian): > 100 µM
- TGI (UO-31 renal): > 100 µM
- TGI (TK-10 renal): > 100 µM
- TGI (SN12C renal): > 100 µM
- TGI (SW-620 colon): > 100 µM
- TGI (UACC-257 melanoma): > 100 µM
- TGI (SNB-78 CNS): > 100 µM
- TGI (786-0 renal): > 100 µM
- TGI (U251 CNS): > 100 µM
- TGI (OVCAR-5 ovarian): > 100 µM
- TGI (LOX IMVI melanoma): > 100 µM
- TGI (K-562 leukemia): > 100 µM
- TGI (ACHN renal): > 100 µM
- TGI (NCI-H460 lung): > 100 µM
- TGI (SK-MEL-5 melanoma): > 100 µM
- TGI (HOP-92 NSCLC): > 100 µM
- TGI (HT29 colon): > 100 µM
- TGI (RXF 393 renal): 97.6 µM
- TGI (M14 melanoma): > 100 µM
- TGI (CAKI-1 renal): > 100 µM
- TGI (HCT-15 colon): > 100 µM
- TGI (OVCAR-3 ovarian): > 100 µM
- TGI (SNB-19 CNS): > 100 µM
- TGI (NCI-H23 lung): > 100 µM
- TGI (SF-295 CNS): > 100 µM
- TGI (UACC-62 melanoma): > 100 µM
- TGI (SF-268 CNS): > 100 µM
- TGI (SK-MEL-28 melanoma): > 100 µM
- TGI (DMS 114 small cell lung): > 100 µM
- TGI (OVCAR-4 ovarian): > 100 µM
- TGI (SNB-75 CNS): > 100 µM
- TGI (EKVX NSCLC): > 100 µM
- TGI (NCI-H522 lung): > 100 µM
- TGI (HCT-116 colon): > 100 µM
- TGI (M19-MEL melanoma): > 100 µM
- TGI (CCRF-CEM leukemia): > 100 µM
- TGI (A498 renal): > 100 µM
- TGI (HOP-62 NSCLC): 73.6 µM
- TGI (SK-MEL-2 melanoma): > 100 µM
- TGI (MALME-3M melanoma): > 100 µM
- TGI (HL-60(TB) leukemia): > 100 µM
- TGI (DLD-1 colon): > 100 µM
- TGI (OVCAR-8 ovarian): > 100 µM
- TGI (DMS 273 small cell lung): > 100 µM
- TGI (KM20L2 colon): > 100 µM
- TGI (SF-539 CNS): 64.4 µM
- TGI (XF 498 CNS): 85 µM
- TGI (NCI-H226 lung): > 100 µM
- TGI (COLO 205 colon): > 100 µM
- TGI (A549 NSCLC): > 100 µM
- TGI (SK-OV-3 ovarian): > 100 µM

SMILES: CCOC(=N)CC(=O)c1ccccc1
- TGI (LXFL 529 NSCLC): > 100 µM
- TGI (MOLT-4 leukemia): > 100 µM
- TGI (IGROV1 ovarian): > 100 µM
- TGI (UO-31 renal): > 100 µM
- TGI (TK-10 renal): > 100 µM
- TGI (SN12C renal): > 100 µM
- TGI (KM12 colon): > 100 µM
- TGI (SW-620 colon): > 100 µM
- TGI (UACC-257 melanoma): > 100 µM
- TGI (SR leukemia): > 100 µM
- TGI (SNB-78 CNS): > 100 µM
- TGI (786-0 renal): > 100 µM
- TGI (U251 CNS): > 100 µM
- TGI (OVCAR-5 ovarian): > 100 µM
- TGI (LOX IMVI melanoma): > 100 µM
- TGI (K-562 leukemia): > 100 µM
- TGI (ACHN renal): > 100 µM
- TGI (HCC-2998 colon): > 100 µM
- TGI (SK-MEL-5 melanoma): > 100 µM
- TGI (HOP-92 NSCLC): > 100 µM
- TGI (HT29 colon): > 100 µM
- TGI (RXF 393 renal): > 100 µM
- TGI (M14 melanoma): > 100 µM
- TGI (CAKI-1 renal): > 100 µM
- TGI (OVCAR-3 ovarian): > 100 µM
- TGI (SNB-19 CNS): > 100 µM
- TGI (NCI-H23 lung): > 100 µM
- TGI (SF-295 CNS): > 100 µM
- TGI (UACC-62 melanoma): > 100 µM
- TGI (SF-268 CNS): > 100 µM
- TGI (SK-MEL-28 melanoma): > 100 µM
- TGI (DMS 114 small cell lung): > 100 µM
- TGI (OVCAR-4 ovarian): > 100 µM
- TGI (SNB-75 CNS): > 100 µM
- TGI (EKVX NSCLC): > 100 µM
- TGI (NCI-H522 lung): > 100 µM
- TGI (HCT-116 colon): > 100 µM
- TGI (M19-MEL melanoma): > 100 µM
- TGI (CCRF-CEM leukemia): > 100 µM
- TGI (A498 renal): > 100 µM
- TGI (HOP-62 NSCLC): > 100 µM
- TGI (SK-MEL-2 melanoma): > 100 µM
- TGI (HOP-18 NSCLC): > 100 µM
- TGI (MALME-3M melanoma): > 100 µM
- TGI (HL-60(TB) leukemia): > 100 µM
- TGI (DLD-1 colon): > 100 µM
- TGI (OVCAR-8 ovarian): > 100 µM
- TGI (DMS 273 small cell lung): > 100 µM
- TGI (KM20L2 colon): > 100 µM
- TGI (SF-539 CNS): > 100 µM
- TGI (XF 498 CNS): > 100 µM
- TGI (NCI-H226 lung): > 100 µM
- TGI (COLO 205 colon): > 100 µM
- TGI (A549 NSCLC): > 100 µM
- TGI (SK-OV-3 ovarian): > 100 µM
